Assay results: patent US6358983B1, “Heterocyclically substituted α-hydroxycarboxylic acid derivatives, method for producing the same and their use as endothelin receptor antagonists” (Abbott Laboratories, priority 1997, dated 2002)

What was measured:
[1] = target: T1, human ETB receptor (Homo sapiens, UniProt P24530); test: ETB receptor binding test ([125I]-ET3, CHO cell membranes); settings: cloned human ETB receptor, 25 pM [125I]-ET3, 25° C., 30 min
T1 construct: expressed in transfected cells; host or cells: CHO cells (membrane preparation)
T1 sequence (P24530 27-442): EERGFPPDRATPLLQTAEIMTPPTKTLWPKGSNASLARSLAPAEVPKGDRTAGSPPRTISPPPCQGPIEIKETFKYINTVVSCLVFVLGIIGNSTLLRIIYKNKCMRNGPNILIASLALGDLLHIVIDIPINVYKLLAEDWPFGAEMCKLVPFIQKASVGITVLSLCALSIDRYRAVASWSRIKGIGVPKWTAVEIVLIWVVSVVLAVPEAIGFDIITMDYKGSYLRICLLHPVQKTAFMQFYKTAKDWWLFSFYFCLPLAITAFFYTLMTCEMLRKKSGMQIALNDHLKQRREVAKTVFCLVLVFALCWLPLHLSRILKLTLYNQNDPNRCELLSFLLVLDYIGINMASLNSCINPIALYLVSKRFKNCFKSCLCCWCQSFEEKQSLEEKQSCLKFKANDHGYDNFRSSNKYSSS
Description: (§1) For binding studies, cloned human ETA or ETB receptor-expressing CHO cells were employed.
(§2) The ETA or ETB receptor-expressing CHO cells were proliferated in DMEM NUT MIX F12 medium (Gibco, No. 21331-020) using 10% fetal calf serum (PAA Laboratories GmbH, Linz, No. A15-022), 1 mM glutamine (Gibco No. 25030-024), 100 U/ml of penicillin and 100 μg/ml of streptomycin (Gibco, Sigma No P-0781). After 48 hours, the cells were washed with PBS and incubated at 37° C. for 5 minutes with 0.05% trypsin-containing PBS. Neutralization with medium was then carried out and the cells were collected by centrifugation at 300×g.
(§3) For the membrane preparation, the cells were adjusted to a concentration of 10^8 cells/ml of buffer (50 mM tris·HCL buffer, pH 7.4) and then disintegrated by means of ultrasound Branson Sonifier 250, 40-70 seconds/constant/output [sic] 20).
(§4) For the ETA and ETB receptor binding test, the membranes were suspended in incubation buffer (50 mM tris HCl, pH 7.4 with 5 mM MnCl2, […] of bacitracin and 0.2% BSA) in a concentration of 50 μg of protein per test batch and incubated at 25° C. with 25 pM [125I]-ET1 (ETA receptor test) or 25 pM [125I]-ET3 (ETB receptor test) in the presence or absence of test substance. The nonspecific binding was determined with 10^−7 M ET1. After 30 min, the free and the bound -radioligand were separated by filtration through GF/B glass fiber filters (Whatman, England) on a Skatron cell collector (Skatron, Lier, Norway) and the filters were washed with ice-cold tris HCl buffer, pH 7.4 with 0.2% BSA.
(§5) The radioactivity collected on the filters was quantified using a Packard 2200 CA liquid scintillation counter.
(§6) According to the binding test described above, receptor binding data were measured for the compounds shown below.

[2] = target: T2, human ETA receptor (Homo sapiens, UniProt P25101); test: ETA receptor binding test ([125I]-ET1, CHO cell membranes); settings: cloned human ETA receptor, 25 pM [125I]-ET1, 25° C., 30 min
T2 construct: expressed in transfected cells; host or cells: CHO cells (membrane preparation)
T2 sequence (P25101 21-427): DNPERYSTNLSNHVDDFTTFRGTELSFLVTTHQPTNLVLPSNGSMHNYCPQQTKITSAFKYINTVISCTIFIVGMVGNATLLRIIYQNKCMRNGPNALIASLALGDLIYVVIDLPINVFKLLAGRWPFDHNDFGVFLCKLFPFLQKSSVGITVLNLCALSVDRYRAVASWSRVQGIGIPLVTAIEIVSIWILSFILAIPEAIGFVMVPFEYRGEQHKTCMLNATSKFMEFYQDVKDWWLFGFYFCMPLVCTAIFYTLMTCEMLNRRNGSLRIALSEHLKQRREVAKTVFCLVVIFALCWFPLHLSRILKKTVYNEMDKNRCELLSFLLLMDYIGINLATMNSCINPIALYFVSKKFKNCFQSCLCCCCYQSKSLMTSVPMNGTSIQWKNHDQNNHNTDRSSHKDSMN
Description: as §1, §2, §3, §4, §5, §6

For `COC(c1ccccc1)(c1ccccc1)[C@H](Oc1nc(C)c(C)s1)C(=O)O` [Compound I-1, (S)-2-(4,5-Dimethylthiazol-2-yloxy)-3-methoxy-3,3-diphenyl-propionic Acid], which Ki [1] is on record?
Its Ki is 0.65 µM.

And the Ki [2]?
The Ki was 0.013 µM.

What does the source list for `COc1ccc(CCOC(c2ccccc2)(c2ccccc2)C(Oc2nc(C)c(C)o2)C(=O)O)cc1OC` (stereo not drawn) [Compound I-15, 2-(4,5-Dimethyloxazol-2-yloxy)-3-(2-(3,4-dimethoxyphenyl)-ethoxy)-3,3-diphenylpropionic Acid]?
Ki [1]: 0.485 µM; Ki [2]: 0.215 µM

Which Ki [1] does the source give for `COc1ccc(CCOC(c2ccccc2)(c2ccccc2)C(Oc2nc(C)c(C)s2)C(=O)O)cc1OC` (stereo not drawn) [Compound I-13, 2-(4,5-Dimethylthiazol-2-yloxy)-3-(2-(3,4-dimethoxyphenyl)-ethoxy)-3,3-diphenylpropionic Acid] here?
The Ki was 0.21 µM.

And the Ki [2]?
The Ki was 0.145 µM.

`COC(c1ccccc1)(c1ccccc1)[C@H](Oc1nc2c(s1)CCC2)C(=O)O` [Compound I-5, (S)-2-(4,5-Cyclopentenothiazol-2-yloxy)-3-methoxy-3,3-diphenyl-propionic Acid] was tested. Which Ki [1] did it give?
The Ki was greater than 0.7 µM.

And the Ki [2]?
Its Ki is 0.05 µM.

What does the source list for `COC(c1ccccc1)(c1ccccc1)[C@H](Oc1nc(C)c(C)o1)C(=O)O` [Compound I-4, (S)-2-(4,5-Dimethyloxazol-2-yloxy)-3-methoxy-3,3-diphenyl-propionic Acid]?
Ki [1]: 3.1 µM; Ki [2]: 0.029 µM

How did the Ki [1] turn out when `COC(c1ccccc1)(c1ccccc1)[C@H](Oc1nc2ccccc2s1)C(=O)O` [Compound I-6, (S)-2-(Benzothiazol-2-yloxy)-3-methoxy-3,3-diphenylpropionic Acid] was run?
The Ki was greater than 7.1 µM.

What about the Ki [2] of the same molecule?
Its Ki is 0.9 µM.
